Laboratory results from US20030089885A1, “Use of low molecular weight acetal, alcohol, acylated alcohol and ester compounds to block or reduce odor of carboxylic acids” (Senomyx, Inc., priority 2001, published 2003).

Each compound was assayed on isovaleric acid (assay: Malodor Reduction Test (cross-adaptation, Labeled Magnitude Scale)). Conditions: Homo sapiens, inhaled or nasal; 1% (v/v) test substance in diethylphthalate sniffed before 56 ppm aqueous isovaleric acid; perceived intensity on LMS.
Assay type: in vivo
Experimental: a) Malodor Reduction Test
Each subject's sense of smell was tested using a smell identification test and an isovaleric acid threshold test. To pass the smell ID test the subject had to correctly identify the aromas of peach, spearmint, cinnamon, lime, pineapple and clove. To pass the isovaleric acid threshold test subjects had to detect the odor of isovaleric acid in a one part-per-million (1 ppm weight/volume) aqueous isovaleric acid solution. This is above the 0.12 ppm threshold for a person with a normal sense of smell and below the 5.0 ppm threshold for a person with a specific anosmia to isovaleric acid (Amoore 1977). The use of an odor ID and a threshold test to identify subjects with a normal sense of smell is standard practice, (Cain, Gent et al. 1983).
The target malodor, isovaleric acid, was presented to the subject in a 60 mL, wide mouth amber, screw cap jar. The concentration of isovaleric acid in water that gave an odor intensity of strong or higher on the Labeled Magnitude Scale was 56 parts-per-million (weight/volume). Five milliliters of a 1% (v/v) solution of the test substance in diethylphthalate (DEP) presented in a 20 ml glass vial were used to evaluate the blocker candidate. The labeled the Labeled Magnitude Scale (LMS, FIG. 1) was developed for the quantitative measurement of taste, irritation and odor intensities (Green, Shaffer et al. 1993; Green, Dalton et al. 1996).
Evaluation of a sample for malodor blocking was as follows: a) The subject sniffed the isovaleric acid (target) with both nostrils and scored its intensity using the Labeled Magnitude Scale (LMS), b) The subject waited one minute, c) the subject sniffed the candidate compound twice with the left and then twice with the right nostril, d) the subject sniffed the isovaleric acid target sample within 20 seconds with both nostrils and scored its odor using the LMS, and e) the subject waited for two minutes before proceeding to the next test substance.
The percent malodor reduction (% MOR) was calculated using the following formula:
% MOR=[1−(IVAInt after CA/IVAINT before CA)]×100 where: IVA isovaleric acid
The ratio in this equation goes from zero (complete blocking) to one (no blocking). The % malodor reduction moves in the opposite direction and goes from 100% for complete blocking to 0% for no blocking.
Tables 1, 2, and 3 present the percent malodor reduction for some low molecular weight acetals, alcohols and esters respectively. In each of these tables the standard error of the mean is the standard deviation of the mean divided by the square root of the number of subjects used for the evaluation.

**Q.** Which inhibition in vivo at 1 % v/v does the source give for `CCOC(CC(C)C)OCC` [1,1-Diethoxy-3-methyl-butane, 1,1-Diethoxy-3-methyl-butane] here?
**A.** Its inhibition in vivo at 1 % v/v is 78%.

**Q.** Which inhibition in vivo at 1 % v/v does the source give for `COC(CC(C)C)OC` [1,1-Dimethoxy-3-methyl-butane, 1,1-Dimethoxy-3-methyl-butane] here?
**A.** The inhibition in vivo at 1 % v/v was 87%.

**Q.** Which inhibition in vivo at 1 % v/v does the source give for `CC1(CCO)CC1` [2-(1-Methyl-cyclopropyl)-ethanol, 2-(1-Methyl-cyclopropyl)-ethanol] here?
**A.** The inhibition in vivo at 1 % v/v was 72%.

**Q.** For `CC1CC1C1OCCO1` (stereo not drawn) [2-(2-Methyl-cyclopropyl)-[1,3]dioxolane, 2-(2-Methyl-cyclopropyl)-[1,3]dioxolane], which inhibition in vivo at 1 % v/v is on record?
**A.** Its inhibition in vivo at 1 % v/v is 85%.

**Q.** Which inhibition in vivo at 1 % v/v does the source give for `CC1CC1CCO` (stereo not drawn) [2-(2-Methyl-cyclopropyl)-ethanol, 2-(2-Methyl-cyclopropyl)-ethanol] here?
**A.** Its inhibition in vivo at 1 % v/v is 77%.

**Q.** With `OCCC1CC1` [2-Cyclopropylethanol] as the compound, how does the inhibition in vivo at 1 % v/v read?
**A.** The inhibition in vivo at 1 % v/v was 74%.

**Q.** For `CC(C)CC1OC(C)C(C)O1` (stereo not drawn) [2-Isobutyl-4,5-dimethyl-[1,3]dioxolane, 2-Isobutyl-4,5-dimethyl-[1,3]dioxolane], which inhibition in vivo at 1 % v/v is on record?
**A.** The inhibition in vivo at 1 % v/v was 89%.

**Q.** With `CC(C)CC1OCCC(C)O1` (stereo not drawn) [2-Isobutyl-4-methyl-[1,3]dioxane, 2-Isobutyl-4-methyl-[1,3]dioxane] as the compound, how does the inhibition in vivo at 1 % v/v read?
**A.** Its inhibition in vivo at 1 % v/v is 92%.

**Q.** `CC(C)CC1OCC(C)O1` (stereo not drawn) [2-Isobutyl-4-methyl-[1,3]dioxolane, 2-Isobutyl-4-methyl-[1,3]dioxolane] was tested. Which inhibition in vivo at 1 % v/v did it give?
**A.** The inhibition in vivo at 1 % v/v was 89%.

**Q.** For `CC(C)CC1OCC(C)CO1` (stereo not drawn) [2-Isobutyl-5-methyl-[1,3]dioxane, 2-Isobutyl-5-methyl-[1,3]dioxane], which inhibition in vivo at 1 % v/v is on record?
**A.** The inhibition in vivo at 1 % v/v was 80%.

**Q.** `CC(C)CC1OCCCO1` [2-Isobutyl-[1,3]dioxane] was tested. Which inhibition in vivo at 1 % v/v did it give?
**A.** Its inhibition in vivo at 1 % v/v is 97%.

**Q.** With `CC(C)CC1OCCO1` [2-Isobutyl-[1,3]dioxolane] as the compound, how does the inhibition in vivo at 1 % v/v read?
**A.** Its inhibition in vivo at 1 % v/v is 87%.

**Q.** `CCOC(=O)C1CC1C` (stereo not drawn) [2-Methyl-cyclopropanecarboxylic acid ethyl ester] was tested. Which inhibition in vivo at 1 % v/v did it give?
**A.** Its inhibition in vivo at 1 % v/v is 81%.

**Q.** Which inhibition in vivo at 1 % v/v does the source give for `CC(C)OC(=O)C1CC1C` (stereo not drawn) [2-Methyl-cyclopropanecarboxylic acid isopropyl ester] here?
**A.** Its inhibition in vivo at 1 % v/v is 68%.

**Q.** With `COC(=O)C1CC1C` (stereo not drawn) [2-Methyl-cyclopropanecarboxylic acid methyl ester] as the compound, how does the inhibition in vivo at 1 % v/v read?
**A.** The inhibition in vivo at 1 % v/v was 89%.

**Q.** How did the inhibition in vivo at 1 % v/v turn out when `CC1CC1CO` (stereo not drawn) [2-Methylcyclopropane methanol] was run?
**A.** The inhibition in vivo at 1 % v/v was 85%.

**Q.** How did the inhibition in vivo at 1 % v/v turn out when `CCC1COC(CC(C)C)O1` (stereo not drawn) [4-Ethyl-2-isobutyl-[1,3]dioxolane, 4-Ethyl-2-isobutyl-[1,3]dioxolane] was run?
**A.** The inhibition in vivo at 1 % v/v was 78%.

**Q.** `CCOC(=O)CC(C)C` [Ethyl isovalerate] was tested. Which inhibition in vivo at 1 % v/v did it give?
**A.** Its inhibition in vivo at 1 % v/v is 94%.

**Q.** For `CC(C)CCO` [Isoamyl Alcohol], which inhibition in vivo at 1 % v/v is on record?
**A.** Its inhibition in vivo at 1 % v/v is 73%.

**Q.** `CC(=O)OCCC(C)C` [Isoamylacetate] was tested. Which inhibition in vivo at 1 % v/v did it give?
**A.** The inhibition in vivo at 1 % v/v was 67%.

**Q.** Which inhibition in vivo at 1 % v/v does the source give for `CC(C)CC(=O)OC(C)C` [Isopropyl isovalerate] here?
**A.** Its inhibition in vivo at 1 % v/v is 74%.

**Q.** Which inhibition in vivo at 1 % v/v does the source give for `CCCOC(=O)CC(C)C` [n-Propyl isovalerate] here?
**A.** Its inhibition in vivo at 1 % v/v is 83%.

What follows are compounds tested on isovaleric acid (assay: Deodorant stick containing 1% malodor reduction compound, sniff test). Conditions: compound at 1% by weight of deodorant stick; stick sniffed twice before 56 ppm aqueous isovaleric acid.
Assay type: in vivo, human
From the text: A conventional deodorant stick composition, for example one with the following composition:
is modified by the addition of compound having a malodor reduction value of 80% or more as measured by the malodor reduction test presented in Example 1 in an amount such that it accounts for 1% by weight of the deodorant stick. […] Examples of effective compounds are: 2-Isobutyl-[1,3]dioxane, 2-Isobutyl-4,5-dimethyl-[1,3]dioxolane, 2-Isobutyl-4-methyl-[1,3]dioxane, 2-Isobutyl-4-methyl-[1,3]dioxolane, 1,1-Dimethoxy-3-methyl-butane, 2-lsobutyl-[1,3]dioxolane, 2-(2-Methyl-cyclopropyl)-[1,3]dioxolane, 2-Isobutyl-5-methyl-[1,3]dioxane, 2-Methylcyclopropane methanol, Ethyl isovalerate, Methyl isovalerate, 2-Methyl-cyclopropanecarboxylic acid methyl ester, n-Propyl isovalerate, and 2-Methyl-cyclopropanecarboxylic acid ethyl ester.

**Q.** `COC(CC(C)C)OC` [1,1-Dimethoxy-3-methyl-butane, 1,1-Dimethoxy-3-methyl-butane] was tested. Which “block of the perception of isovaleric acid by deodorant stick” value (from here on “block”) did it give?
**A.** Its value is “completely block”.

**Q.** `CC1CC1C1OCCO1` (stereo not drawn) [2-(2-Methyl-cyclopropyl)-[1,3]dioxolane, 2-(2-Methyl-cyclopropyl)-[1,3]dioxolane] was tested. Which “block” value did it give?
**A.** The value was “completely block”.

**Q.** Which “block” value does the source give for `CC(C)CC1OC(C)C(C)O1` (stereo not drawn) [2-Isobutyl-4,5-dimethyl-[1,3]dioxolane, 2-Isobutyl-4,5-dimethyl-[1,3]dioxolane] here?
**A.** The value was “completely block”.

**Q.** How did the “block” value turn out when `CC(C)CC1OCCC(C)O1` (stereo not drawn) [2-Isobutyl-4-methyl-[1,3]dioxane, 2-Isobutyl-4-methyl-[1,3]dioxane] was run?
**A.** Its value is “completely block”.

**Q.** How did the “block” value turn out when `CC(C)CC1OCC(C)O1` (stereo not drawn) [2-Isobutyl-4-methyl-[1,3]dioxolane, 2-Isobutyl-4-methyl-[1,3]dioxolane] was run?
**A.** The value was “completely block”.

**Q.** For `CC(C)CC1OCC(C)CO1` (stereo not drawn) [2-Isobutyl-5-methyl-[1,3]dioxane, 2-Isobutyl-5-methyl-[1,3]dioxane], which “block” value is on record?
**A.** The value was “completely block”.

**Q.** Which “block” value does the source give for `CC(C)CC1OCCCO1` [2-Isobutyl-[1,3]dioxane] here?
**A.** Its value is “completely block”.

**Q.** With `CC(C)CC1OCCO1` [2-Isobutyl-[1,3]dioxolane] as the compound, how does the “block” value read?
**A.** The value was “completely block”.

**Q.** How did the “block” value turn out when `CCOC(=O)C1CC1C` (stereo not drawn) [2-Methyl-cyclopropanecarboxylic acid ethyl ester] was run?
**A.** Its value is “completely block”.

**Q.** Which “block” value does the source give for `COC(=O)C1CC1C` (stereo not drawn) [2-Methyl-cyclopropanecarboxylic acid methyl ester] here?
**A.** Its value is “completely block”.

**Q.** With `CC1CC1CO` (stereo not drawn) [2-Methylcyclopropane methanol] as the compound, how does the “block” value read?
**A.** Its value is “completely block”.

**Q.** For `CCOC(=O)CC(C)C` [Ethyl isovalerate], which “block” value is on record?
**A.** Its value is “completely block”.

**Q.** For `COC(=O)CC(C)C` [Methyl isovalerate], which “block” value is on record?
**A.** The value was “completely block”.

**Q.** Which “block” value does the source give for `CCCOC(=O)CC(C)C` [n-Propyl isovalerate] here?
**A.** Its value is “completely block”.
